Data from patent US10231954B2, “Neurodegenerative therapies” (LYTIX BIOPHARMA AS, priority 2014, dated 2019).

Assays:
Assay type in all cases: biochemical
Src = Src (Homo sapiens, UniProt P12931); test: Kinase profiling Src; settings: 100 micromolar inhibitor concentration, 100 is no change
Text: (§1) Any value less that 25 is considered to be highly significant inhibition.

RIPK2 = RIPK2 (Homo sapiens, UniProt O43353); test: Kinase profiling RIPK2; settings: 100 micromolar inhibitor concentration, 100 is no change
Text: as §1

EF2K = EF2K (Homo sapiens, UniProt O00418); test: Kinase profiling EF2K; settings: 100 micromolar inhibitor concentration, 100 is no change
Text: as §1

TrkA = TrkA (Homo sapiens, UniProt P04629); test: Kinase profiling TrkA; settings: 100 micromolar inhibitor concentration, 100 is no change
Text: as §1

JNK3 = JNK3 (Homo sapiens, UniProt P53779); test: Kinase profiling JNK3; settings: 100 micromolar inhibitor concentration, 100 is no change
Text: as §1

VEG-FR = test: Kinase profiling VEG-FR; settings: 100 micromolar inhibitor concentration; 100 is no change
Text: as §1

SGK1 = biological target: T1, SGK1 (Homo sapiens, UniProt O00141); test: Kinase profiling SGK1; settings: 100 micromolar inhibitor concentration, 100 is no change
T1 sequence (O00141 1-431): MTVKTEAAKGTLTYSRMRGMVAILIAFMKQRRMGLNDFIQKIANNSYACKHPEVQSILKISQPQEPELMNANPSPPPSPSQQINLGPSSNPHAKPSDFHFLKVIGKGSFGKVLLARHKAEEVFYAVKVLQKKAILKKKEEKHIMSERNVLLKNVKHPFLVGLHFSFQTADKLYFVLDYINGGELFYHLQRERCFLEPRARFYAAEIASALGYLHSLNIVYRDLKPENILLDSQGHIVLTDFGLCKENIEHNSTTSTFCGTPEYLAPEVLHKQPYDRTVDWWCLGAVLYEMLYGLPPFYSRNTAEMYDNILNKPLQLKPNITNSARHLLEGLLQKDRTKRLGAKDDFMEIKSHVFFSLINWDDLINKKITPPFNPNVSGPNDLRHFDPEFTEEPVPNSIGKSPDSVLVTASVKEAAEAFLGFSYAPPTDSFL
Text: as §1

PRK2 = PRK2 (Homo sapiens, UniProt Q16513); test: Kinase profiling PRK2; settings: 100 micromolar inhibitor concentration, 100 is no change
Text: as §1

BTK = BTK (Homo sapiens, UniProt Q06187); test: Kinase profiling BTK; settings: 100 micromolar inhibitor concentration, 100 is no change
Text: as §1

PIM1 = PIM1 (Homo sapiens, UniProt P11309); test: Kinase profiling PIM1; settings: 100 micromolar inhibitor concentration, 100 is no change
Text: as §1

MKK2 = MKK2 (Homo sapiens, UniProt P36507); test: Kinase profiling MKK2; settings: 100 micromolar inhibitor concentration, 100 is no change
Text: as §1

p38a MAPK = p38a MAPK (Homo sapiens, UniProt Q16539); test: Kinase profiling p38a MAPK; settings: 100 micromolar inhibitor concentration, 100 is no change
Text: as §1

p38b MAPK = p38b MAPK (Homo sapiens, UniProt Q15759); test: Kinase profiling p38b MAPK; settings: 100 micromolar inhibitor concentration, 100 is no change
Text: as §1

PDK1 = biological target: T2, PDK1 (Homo sapiens, UniProt O15530); test: Kinase profiling PDK1; settings: 100 micromolar inhibitor concentration, 100 is no change
T2 sequence (O15530 1-556): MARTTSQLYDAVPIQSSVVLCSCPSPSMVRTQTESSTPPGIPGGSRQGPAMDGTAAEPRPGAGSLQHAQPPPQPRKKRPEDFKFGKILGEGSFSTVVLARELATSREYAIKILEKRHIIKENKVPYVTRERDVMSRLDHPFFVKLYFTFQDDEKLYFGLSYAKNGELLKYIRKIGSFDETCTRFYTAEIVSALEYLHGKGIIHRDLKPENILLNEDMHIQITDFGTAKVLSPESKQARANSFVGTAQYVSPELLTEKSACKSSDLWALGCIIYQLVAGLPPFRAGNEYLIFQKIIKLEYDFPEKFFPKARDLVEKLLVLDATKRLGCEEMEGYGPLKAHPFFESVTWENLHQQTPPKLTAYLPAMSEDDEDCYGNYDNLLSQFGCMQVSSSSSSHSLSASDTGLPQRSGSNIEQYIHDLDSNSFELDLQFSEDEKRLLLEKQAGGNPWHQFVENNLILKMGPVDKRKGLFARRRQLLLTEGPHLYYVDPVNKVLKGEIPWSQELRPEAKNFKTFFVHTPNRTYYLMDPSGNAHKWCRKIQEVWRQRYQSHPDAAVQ
Text: as §1

MKK1 = MKK1 (Homo sapiens, UniProt Q02750); test: Kinase profiling MKK1; settings: 100 micromolar inhibitor concentration, 100 is no change
Text: as §1

PKBa = PKBa (Homo sapiens, UniProt P31749); test: Kinase profiling PKBa; settings: for residual kinase activity, PKBa: 100 micromolar inhibitor concentration, 100 is no change
Text: as §1

MARK3 = MARK3 (Homo sapiens, UniProt P27448); test: Kinase profiling MARK3; settings: 100 micromolar inhibitor concentration, 100 is no change
Text: as §1

SRPK1 = SRPK1 (Homo sapiens, UniProt Q96SB4); test: Kinase profiling SRPK1; settings: 100 micromolar inhibitor concentration, 100 is no change
Text: as §1

IRAK4 = biological target: T3, IRAK4 (Homo sapiens, UniProt Q9NWZ3); test: Kinase profiling IRAK4; settings: 100 micromolar inhibitor concentration, 100 is no change
T3 sequence (Q9NWZ3 1-460): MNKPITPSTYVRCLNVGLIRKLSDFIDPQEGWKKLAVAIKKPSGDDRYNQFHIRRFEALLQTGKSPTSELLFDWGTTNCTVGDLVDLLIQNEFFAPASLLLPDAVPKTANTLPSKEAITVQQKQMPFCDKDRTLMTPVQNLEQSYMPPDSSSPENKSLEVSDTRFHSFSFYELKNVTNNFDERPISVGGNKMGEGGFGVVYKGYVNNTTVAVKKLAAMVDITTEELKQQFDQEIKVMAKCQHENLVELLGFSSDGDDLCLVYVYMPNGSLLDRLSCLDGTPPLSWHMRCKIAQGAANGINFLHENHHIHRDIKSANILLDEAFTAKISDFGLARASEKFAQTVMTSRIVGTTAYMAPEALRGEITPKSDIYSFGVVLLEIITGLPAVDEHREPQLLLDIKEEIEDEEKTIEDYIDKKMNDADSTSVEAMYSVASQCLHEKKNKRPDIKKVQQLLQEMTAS
Text: as §1

Sequence of JNK3 (P53779 whole entry, species assumed): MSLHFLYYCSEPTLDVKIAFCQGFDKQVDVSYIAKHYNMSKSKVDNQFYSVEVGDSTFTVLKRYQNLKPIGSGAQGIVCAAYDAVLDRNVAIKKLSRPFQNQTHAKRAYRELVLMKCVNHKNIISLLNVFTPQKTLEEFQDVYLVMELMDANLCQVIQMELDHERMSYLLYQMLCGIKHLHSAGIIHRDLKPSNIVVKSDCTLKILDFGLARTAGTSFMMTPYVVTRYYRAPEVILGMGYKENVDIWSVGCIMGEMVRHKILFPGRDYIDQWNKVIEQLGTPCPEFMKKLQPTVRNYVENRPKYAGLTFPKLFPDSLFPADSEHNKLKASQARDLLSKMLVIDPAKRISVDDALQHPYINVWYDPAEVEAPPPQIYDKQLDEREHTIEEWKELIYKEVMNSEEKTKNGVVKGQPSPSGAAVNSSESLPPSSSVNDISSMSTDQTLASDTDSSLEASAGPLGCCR
Sequence of SRPK1 (Q96SB4 whole entry, species assumed): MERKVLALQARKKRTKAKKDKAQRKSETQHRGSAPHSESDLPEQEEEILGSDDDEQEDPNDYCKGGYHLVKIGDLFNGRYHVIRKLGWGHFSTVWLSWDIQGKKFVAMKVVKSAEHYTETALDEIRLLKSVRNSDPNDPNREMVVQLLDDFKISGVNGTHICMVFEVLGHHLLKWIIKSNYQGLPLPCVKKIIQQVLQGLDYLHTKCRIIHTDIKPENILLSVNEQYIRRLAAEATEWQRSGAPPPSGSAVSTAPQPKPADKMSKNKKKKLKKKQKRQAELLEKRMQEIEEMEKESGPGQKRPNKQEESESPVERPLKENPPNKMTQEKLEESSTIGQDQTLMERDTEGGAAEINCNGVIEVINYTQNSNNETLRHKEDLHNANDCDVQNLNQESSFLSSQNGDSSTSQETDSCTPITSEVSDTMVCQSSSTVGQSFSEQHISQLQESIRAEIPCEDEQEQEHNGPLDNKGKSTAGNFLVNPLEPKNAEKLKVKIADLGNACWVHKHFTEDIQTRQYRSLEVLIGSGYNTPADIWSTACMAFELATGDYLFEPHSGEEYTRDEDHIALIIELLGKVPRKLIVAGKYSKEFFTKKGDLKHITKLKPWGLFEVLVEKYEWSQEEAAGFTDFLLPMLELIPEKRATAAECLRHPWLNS
Sequence of RIPK2 (O43353 whole entry, species assumed): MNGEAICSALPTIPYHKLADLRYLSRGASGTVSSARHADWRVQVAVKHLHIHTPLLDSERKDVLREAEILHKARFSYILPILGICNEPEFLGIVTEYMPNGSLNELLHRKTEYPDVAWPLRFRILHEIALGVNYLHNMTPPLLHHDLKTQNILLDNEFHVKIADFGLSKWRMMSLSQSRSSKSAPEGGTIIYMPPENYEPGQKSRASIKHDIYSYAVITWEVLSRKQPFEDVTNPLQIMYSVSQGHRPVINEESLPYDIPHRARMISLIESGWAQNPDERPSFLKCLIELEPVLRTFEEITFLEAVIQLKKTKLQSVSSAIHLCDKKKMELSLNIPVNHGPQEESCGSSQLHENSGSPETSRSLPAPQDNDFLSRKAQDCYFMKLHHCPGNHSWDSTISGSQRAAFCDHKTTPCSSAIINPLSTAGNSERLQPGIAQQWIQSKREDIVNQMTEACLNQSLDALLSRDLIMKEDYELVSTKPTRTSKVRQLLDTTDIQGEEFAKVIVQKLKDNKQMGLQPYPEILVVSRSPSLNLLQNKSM
Sequence of PRK2 (Q16513 whole entry, species assumed): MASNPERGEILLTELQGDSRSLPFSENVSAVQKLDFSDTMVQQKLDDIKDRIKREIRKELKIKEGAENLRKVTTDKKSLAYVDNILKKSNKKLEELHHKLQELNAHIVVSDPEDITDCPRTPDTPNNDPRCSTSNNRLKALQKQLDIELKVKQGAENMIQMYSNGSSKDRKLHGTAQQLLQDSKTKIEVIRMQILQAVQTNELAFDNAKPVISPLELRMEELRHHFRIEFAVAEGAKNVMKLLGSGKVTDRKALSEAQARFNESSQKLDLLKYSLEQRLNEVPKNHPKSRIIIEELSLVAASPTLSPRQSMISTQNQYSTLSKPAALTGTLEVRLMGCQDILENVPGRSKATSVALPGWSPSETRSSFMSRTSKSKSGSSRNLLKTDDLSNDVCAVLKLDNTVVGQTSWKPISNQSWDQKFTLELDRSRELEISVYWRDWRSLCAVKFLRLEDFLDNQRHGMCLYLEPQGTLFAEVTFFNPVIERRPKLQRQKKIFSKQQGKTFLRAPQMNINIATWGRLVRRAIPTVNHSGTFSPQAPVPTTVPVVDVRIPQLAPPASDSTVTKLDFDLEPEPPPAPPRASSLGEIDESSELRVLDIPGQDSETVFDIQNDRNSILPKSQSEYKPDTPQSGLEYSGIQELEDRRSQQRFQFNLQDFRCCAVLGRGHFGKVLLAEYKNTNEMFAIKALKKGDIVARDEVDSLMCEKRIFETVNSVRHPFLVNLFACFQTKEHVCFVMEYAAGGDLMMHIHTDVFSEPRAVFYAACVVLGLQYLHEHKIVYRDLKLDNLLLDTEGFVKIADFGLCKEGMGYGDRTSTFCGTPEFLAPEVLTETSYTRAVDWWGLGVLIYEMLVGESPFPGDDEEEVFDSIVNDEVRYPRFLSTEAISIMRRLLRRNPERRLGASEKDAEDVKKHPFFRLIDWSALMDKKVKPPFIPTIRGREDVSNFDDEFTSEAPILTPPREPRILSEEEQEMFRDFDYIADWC
Sequence of Src (P12931 whole entry, species assumed): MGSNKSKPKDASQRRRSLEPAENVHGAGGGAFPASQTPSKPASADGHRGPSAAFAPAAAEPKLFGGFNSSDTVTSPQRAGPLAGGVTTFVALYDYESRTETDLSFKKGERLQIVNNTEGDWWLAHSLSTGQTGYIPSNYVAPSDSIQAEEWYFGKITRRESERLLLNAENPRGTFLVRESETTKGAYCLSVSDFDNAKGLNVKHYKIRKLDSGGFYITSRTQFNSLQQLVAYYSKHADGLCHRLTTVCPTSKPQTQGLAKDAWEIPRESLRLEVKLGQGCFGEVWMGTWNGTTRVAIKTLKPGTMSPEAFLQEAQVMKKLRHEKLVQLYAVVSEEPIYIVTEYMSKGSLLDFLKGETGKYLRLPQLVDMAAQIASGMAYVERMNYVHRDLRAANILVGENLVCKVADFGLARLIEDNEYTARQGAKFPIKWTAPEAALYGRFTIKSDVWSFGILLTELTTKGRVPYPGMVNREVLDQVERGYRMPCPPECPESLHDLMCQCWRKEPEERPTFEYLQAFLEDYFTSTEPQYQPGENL
Sequence of MKK2 (P36507 whole entry, species assumed): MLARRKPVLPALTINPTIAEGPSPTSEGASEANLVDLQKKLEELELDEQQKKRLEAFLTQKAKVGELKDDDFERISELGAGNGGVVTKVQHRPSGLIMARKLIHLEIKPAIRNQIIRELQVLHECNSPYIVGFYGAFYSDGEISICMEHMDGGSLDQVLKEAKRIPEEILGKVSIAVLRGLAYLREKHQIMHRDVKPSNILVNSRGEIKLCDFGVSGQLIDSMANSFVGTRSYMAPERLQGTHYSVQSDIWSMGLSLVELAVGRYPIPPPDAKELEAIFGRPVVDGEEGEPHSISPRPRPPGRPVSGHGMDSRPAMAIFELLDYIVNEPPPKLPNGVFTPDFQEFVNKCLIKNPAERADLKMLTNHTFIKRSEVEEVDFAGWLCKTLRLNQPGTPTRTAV
Sequence of TrkA (P04629 33-796, species assumed): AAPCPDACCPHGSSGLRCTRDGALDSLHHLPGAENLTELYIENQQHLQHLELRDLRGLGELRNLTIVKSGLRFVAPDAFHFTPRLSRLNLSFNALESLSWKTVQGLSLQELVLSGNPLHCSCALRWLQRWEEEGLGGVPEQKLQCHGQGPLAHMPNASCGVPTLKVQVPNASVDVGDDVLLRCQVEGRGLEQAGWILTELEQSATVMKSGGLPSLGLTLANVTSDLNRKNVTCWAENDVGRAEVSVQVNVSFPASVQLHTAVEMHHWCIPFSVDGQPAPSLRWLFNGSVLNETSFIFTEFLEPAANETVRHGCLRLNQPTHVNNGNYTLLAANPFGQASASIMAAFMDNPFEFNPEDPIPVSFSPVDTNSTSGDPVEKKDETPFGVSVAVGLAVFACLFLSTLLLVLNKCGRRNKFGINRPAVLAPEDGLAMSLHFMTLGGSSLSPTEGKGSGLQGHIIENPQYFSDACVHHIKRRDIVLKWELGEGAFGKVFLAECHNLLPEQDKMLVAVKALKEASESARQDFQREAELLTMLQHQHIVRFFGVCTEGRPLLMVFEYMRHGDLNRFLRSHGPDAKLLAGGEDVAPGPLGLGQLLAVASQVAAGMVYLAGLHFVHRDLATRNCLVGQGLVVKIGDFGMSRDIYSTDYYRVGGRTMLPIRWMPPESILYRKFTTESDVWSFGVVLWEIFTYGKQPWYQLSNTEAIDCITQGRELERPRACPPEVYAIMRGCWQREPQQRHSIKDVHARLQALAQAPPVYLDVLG
Sequence of p38b MAPK (Q15759 whole entry): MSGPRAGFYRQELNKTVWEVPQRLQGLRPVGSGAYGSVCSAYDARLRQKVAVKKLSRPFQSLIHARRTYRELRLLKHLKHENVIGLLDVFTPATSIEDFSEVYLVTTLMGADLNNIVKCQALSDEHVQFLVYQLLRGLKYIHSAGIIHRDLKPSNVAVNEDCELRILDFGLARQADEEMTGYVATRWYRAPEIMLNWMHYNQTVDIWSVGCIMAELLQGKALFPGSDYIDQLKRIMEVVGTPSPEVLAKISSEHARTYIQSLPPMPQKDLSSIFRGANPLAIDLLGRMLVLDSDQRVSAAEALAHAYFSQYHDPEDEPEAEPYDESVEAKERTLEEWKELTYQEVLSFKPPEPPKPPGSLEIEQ
Sequence of PIM1 (P11309 whole entry, species assumed): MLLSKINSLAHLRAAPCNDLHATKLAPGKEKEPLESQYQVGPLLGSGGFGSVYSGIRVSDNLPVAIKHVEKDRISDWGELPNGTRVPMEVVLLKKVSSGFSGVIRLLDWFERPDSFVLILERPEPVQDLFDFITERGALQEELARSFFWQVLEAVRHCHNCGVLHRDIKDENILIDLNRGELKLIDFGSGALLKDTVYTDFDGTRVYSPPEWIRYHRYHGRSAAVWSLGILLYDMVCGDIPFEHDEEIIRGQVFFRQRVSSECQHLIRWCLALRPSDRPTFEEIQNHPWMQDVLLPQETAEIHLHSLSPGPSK

SMILES	residual kinase activity, Src (Src)	residual kinase activity, RIPK2 (RIPK2)	residual kinase activity, EF2K (EF2K)	residual kinase activity, TrkA (TrkA)	residual kinase activity, JNK3 (JNK3)	residual kinase activity, VEG-FR (VEG-FR)	residual kinase activity, SGK1 (SGK1)	residual kinase activity, PRK2 (PRK2)	residual kinase activity, BTK (BTK)	residual kinase activity, PIM1 (PIM1)	residual kinase activity, MKK2 (MKK2)	residual kinase activity, p38a MAPK (p38a MAPK)	residual kinase activity, p38b MAPK (p38b MAPK)	residual kinase activity, PDK1 (PDK1)	residual kinase activity, MKK1 (MKK1)	residual kinase activity, PKBa (PKBa)	residual kinase activity, MARK3 (MARK3)	residual kinase activity, SRPK1 (SRPK1)	residual kinase activity, IRAK4 (IRAK4)	also measured
O=C(Nc1nc2cc(O)ccc2s1)c1ccncc1 [Compound 03-11]	79	60	79	87	77	58	84	77	107	74	98	106	97	100	88	88	75	66	69	
O=C(Nc1nc2ccc(O)cc2s1)c1ccccn1 [Compound 03-12]	105	29	69	49	70	17	88	66	71	51	82	107	105	88	80	74	79	63	54	
O=C(Nc1nc2cc(O)ccc2s1)c1ccccn1 [Compound 03-13]	70	27	94	57	67	24	74	97	90	39	82	96	91	104	107	107	68	57	55	
COc1ccc2sc(NC(C)=O)nc2c1 [Compound 03-21]						71														remaining activity at 100 µM (Src; read-out: residual kinase activity, Src): 86%; remaining activity at 100 µM (RIPK2; read-out: residual kinase activity, RIPK2): 29%; remaining activity at 100 µM (EF2K; read-out: residual kinase activity, EF2K): 105%; remaining activity at 100 µM (TrkA; read-out: residual kinase activity, TrkA): 78%; remaining activity at 100 µM (JNK3; read-out: residual kinase activity, JNK3): 80%; remaining activity at 100 µM (SGK1; read-out: residual kinase activity, SGK1): 82%; remaining activity at 100 µM (PRK2; read-out: residual kinase activity, PRK2): 67%; remaining activity at 100 µM (BTK; read-out: residual kinase activity, BTK): 102%; remaining activity at 100 µM (PIM1; read-out: residual kinase activity, PIM1): 8%; remaining activity at 100 µM (MKK2; read-out: residual kinase activity, MKK2): 90%; remaining activity at 100 µM (p38a MAPK; read-out: residual kinase activity, p38a MAPK): 96%; remaining activity at 100 µM (p38b MAPK; read-out: residual kinase activity, p38b MAPK): 101%; remaining activity at 100 µM (PDK1; read-out: residual kinase activity, PDK1): 115%; remaining activity at 100 µM (MKK1; read-out: residual kinase activity, MKK1): 64%; remaining activity at 100 µM (PKBa; read-out: residual kinase activity, PKBa): 91%; remaining activity at 100 µM (MARK3; read-out: residual kinase activity, MARK3): 72%; remaining activity at 100 µM (SRPK1; read-out: residual kinase activity, SRPK1): 84%; remaining activity at 100 µM (IRAK4; read-out: residual kinase activity, IRAK4): 52%
CC(=O)Nc1nc2ccccc2s1 [Compound 03-32]	113	70	89	77	66	66	92	81	100	79	96	91	107	96	81	104	85	59	65	
